Measured values taken from patent US8710071B2, “Compounds, compositions and methods for reducing lipid levels” (CVI Pharmaceuticals Limited, priority 2008, dated 2014).
“Also recorded” adds a separate entry of the source.

What was measured:
LDLR mRNA [1] = experiment: LDLR mRNA expression in HepG2 cells, semi-quantitative RT-PCR; type: cell-based, human; settings: indicated doses, 8 hours, semi-quantitative RT-PCR (FIG. 3)
Protocol: HepG2 cells obtained from American Tissue Culture Collection (Manassas, Va., USA) were seeded in 6-well culture plates at a density of 0.8×10^6 cells/well cultured in EMEM containing 0.5% FBS and were treated with each purified compound at indicated doses for 8 hours. Total RNA was isolated, and 2 μg per sample was reverse transcribed with random primers using M-MLV (Promega) at 37° C. for 1 hour. PCR was carried out at 94° C. for 30 sec, 60° C. for 30 sec, and 72° C. for 30 sec with initial activation of the enzyme at 94° C. for 1 minute. Thirty cycles were performed for LDLR and GAPDH. PCR was performed using primers HLDLR-up and HLDLR-lo for LDLR and primers HGAPDH-up and HGAPDH-lo for GAPDH. The PCR products were separated on a 1% agarose gel and the band intensity was quantitated. LDLR mRNA levels were corrected by measuring GAPDH mRNA levels.
Specific stereochemical requirements of +1-THP in the upregulation of LDLR mRNA expression were determined by a similar experiment. HepG2 cells were treated with the pure 14R-(+)-THP or the pure 14S-(−)-THP at the indicated concentrations for 24 hours. The levels of LDLR mRNA and GAPDH mRNA in untreated and the compound-treated HepG2 cells were assessed by semi-quantitative RT-PCR.

HepG2 cells = experiment: DiI-LDL uptake (LDLR ligand uptake activity) in HepG2 cells; type: cell-based, human; settings: for Activity on DiI-LDL uptake: 20 hours; for Activity in LDL uptake at 40 uM (relative to control): 20 hours (second symbol of the cell); for Activity in LDL uptake at 10 uM (relative to control): 20 hours (first symbol of the cell)
Protocol: HepG2 cells (2×10^5 cells/well) in 24-well culture plates were treated with various compounds at indicated concentrations for 20 hours. The fluorescent 1.1′-dioctadecyl-3,3,3′,3′-tetramethylindocarbocyanin perchlorate (DiI-LDL) (Biomedical Technologies, Stoughton, Mass.) at a concentration of 2 μg/mL was added to cells at the end of treatment. After 4 hours, the medium was removed, cells were washed with cold PBS, and were examined immediately under a fluorescent microscope (Nikon) at 200× amplification. The fluorescent intensity in compound-treated cells was compared to that in untreated control cells. […] In these experiments berberine chloride was used for comparison.
The combined beneficial effects of these novel compounds on elevation of LDLR mRNA levels likely through the mechanism of mRNA stabilization and their inhibitory activity towards PCSK9, the secreted protease that degrades LDLR protein, result in strong increases in LDL ligand uptake activity through increased receptor surface abundance. […] Briefly, HepG2 cells (2×10^5 cells/well) in 24-well culture plates were treated with various compounds at 10 and 40 uM concentrations for 20 hours. The fluorescent 1.1′-dioctadecyl-3,3,3′,3′-tetramethylindocarbocyanin perchlorate (DiI-LDL) (Biomedical Technologies, Stoughton, Mass.) at a concentration of 2 μg/ml was added to cells at the end of treatment. After 4 hours, the medium was removed; cells were washed with cold PBS, and were examined immediately under a fluorescent microscope (Nikon) at 200× amplification. The fluorescent intensity in compound-treated cells was compared to that in untreated control cells. […]

ERK = ERK activation in HepG2 cells, Western blot with anti-phosphorylated ERK; type: cell-based, human; settings: 20 μg/mL, 0.5, 2, or 8 hours (FIG. 5)
Protocol: HepG2 cells cultured in 60-mm dishes were treated with various compounds at a concentration of 15 μg/ml for 2 hours. Total cell lysate was isolated and 50 μg of protein was separated on SDS-PAGE and transferred to nitrocellulose membrane.
HepG2 cells were treated with 20 μg/mL 14R,13S-(+)-CRDL and 14R-(+)-THP respectively for 0.5, 2, or 8 hours. Cells were then lysed. After protein quantitation using the BCA™ protein assay reagent (PIERCE), 50 μg protein from each sample was subjected to SDS-PAGE, followed by Western blotting using anti-phosphorylated ERK (Cell Signaling) and subsequently reprobed with antibody against β-actin.

[2] = system: acetyl coenzyme A carboxylase (ACC); experiment: ACC phosphorylation in HepG2 cells, Western blot; type: cell-based, human; settings: 20 μg/ml, 0.5, 2, or 8 hours (FIG. 6)
Protocol: HepG2 cells were treated with 20 μg/ml14R-(+)-THP for 0.5, 2, or 8 hours. Cells were lysed, and 50 μg protein from each sample was subjected to SDS-PAGE, followed by Western blotting using anti-phosphorylated ACC (Cell Signaling) and subsequently reprobed with antibody against β-actin.
Cells were harvested after 1, 2, and 3 days treatment and western blot analysis was conducted using antibodies directed to LDLR and PCSK9. Chicken anti-LDLR was purchased from Abeam, the mouse anti-PCSK9 was purchased from Cayman Chemicals, and anti-pACC was purchased from Cell Signaling.

hyperlipidemic rabbits = experiment: Lipid lowering effects and blood chemistry in hyperlipidemic rabbits; settings: day 14, doses increased after day 7 to 60 mg/kg (128(+)/128(−)) and 10 mg/kg (SMV/ATV), mean ± SD
Protocol: Forty-two male Japanese rabbits were fed the cholesterol enriched rabbit diet for two weeks to induce hypercholesterolemia. […] Serum samples were collected at day 0 (before the drug treatment) and day 7. […] All tested animals were sacrified at the end of a total of 14 days treatment and serum samples were analyzed for TC, LDL-C, TG, and HDL-C. In addition to lipid profiles, a number of biochemical parameters were also analyzed to aseesee the effects of drug treatments on liver function, muscle function, kidney function, and heart function.

[3] = system: Wister male rats under a high fat and high cholesterol diet; experiment: Lipid lowering effects of (14R,13S)-CRDL hydrochloride salt in Wister rats; type: in vivo, rat; settings: 75 mg/kg daily orally
Protocol: Male Wister rats were used as an animal model to examine the in vivo effects of (14R,13S)—CRDL in plasma lipid levels.
In one experiment, 18 Wister male rats under a high fat and high cholesterol diet were divided into 2 groups. One group was given (14R,13S)—CRDL hydrochloride salt orally at a daily dose of 75 mg/kg by an orogastric tube for 4 weeks, and the control group received daily treatment of equal amount of vehicle (0.1 M sodium phosphate, pH 3.5). Serum lipid levels were measured weekly.
At the end of treatment, Rats were sacrificed and blood and sera were collected to measure several critical parameters for liver function and kidney function. […] Kidney function and blood glucose level were not changed by the treatment.

LDLR mRNA [4] = experiment: LDLR mRNA expression in HepG2 cells, quantitative real-time RT-PCR; type: cell-based, human; settings: Homo sapiens, 24 hours, mean ± s.d.; for fold induction at 10 µM: read-out: Activity on LDLR mRNA at 10 uM (fold of control); for fold induction at 40 µM: read-out: Activity on LDLR mRNA at 40 uM (fold of control)
Protocol: Activities of some compounds of Formulas I, II, III, and IV on LDLR mRNA expression were determined. HepG2 cells were treated with new compounds individually at a dose less than or equal to 10 μM for 24 hours. Total RNA was harvested for quantitative real-time RT-PCR analysis using the method described in Example 16B. […] In these experiments, berberine chloride was included for comparison.
The time-dependent effects of compounds of Formula I, II, III, and IV on the upregulation of LDLR mRNA and the inhibition of PCSK9 mRNA expression were examined (Horton J D, Cohen J C, Hobbs H I T. “Molecular biology of PCSK9: its role in LDL metabolism” TRENDS in Biochemical Sciences 2007; 32:71-77). HepG2 cells were treated with new compounds individually at 20 uM dose for 1 day, 2 day, and 3 days. Total RNA was isolated and 2 μg was used to generate cDNA in a reaction containing random primers and M-MLV at 37° C. for 1 hour in a volume of 25 μl. Real-time PCR was performed on the cDNA using MCEP REALPLEX 2 SYSTEM (Eppendorf) and Universal MasterMix (Applied Biosystems). Human LDLR, PCSK9, and GAPDH Pre-Developed TaqMan Assay Reagents (Applied Biosystems) were used to assess the levels of mRNA expressions in HepG2. The levels of LDLR mRNA or PCSK9 mRNA were normalized to that of GAPDH. Each RNA samples was assayed in triplicate. The abundance of LDLR mRNA or PCSK9 mRNA in untreated cells was defined as 1, and the amounts of LDLR mRNA or PCSK9 from compound-treated cells were plotted relative to that value (FIG. 10). The data shown are mean±s.d.
Total RNA was harvested for quantitative real-time RT-PCR analysis using method described in Examples 16B.
The effects of 23 compounds on the mRNA expressions of LDLR and PCSK9 were examined using quantitative real-time RT-PCR assays. HepG2 cells were treated with various compounds at 10 and 40 uM concentrations for 24 hours. Total RNA was isolated and […] was used to generate cDNA in a reaction containing random primers and M-MLV at 37° C. for 1 h in a volume of 25 μl. Real-time PCR was performed on the cDNA using MCEP REALPLEX 2 SYSTEM (Eppendorf) and Universal MasterMix (Applied Biosystems). Human LDLR, PCSK9, and GAPDH Pre-Developed TaqMan Assay Reagents (Applied Biosystems) were used to assess the levels of mRNA expressions in HepG2. The levels of LDLR and PCSK9 mRNA were normalized to that of GAPDH. Each RNA samples was assayed in duplicate. The fold activity was calculated by dividing mRNA abundance in compound treated cells with that of control.

## COc1cc2c(cc1OC)[C@H]1[C@@H](C)c3ccc(OC)c(OC)c3CN1CC2 [14R,13S-(+)-CRDL, 14R,13S-(+)-corydaline]
LDLR mRNA [1]
  LDLR mRNA expression: potent and dose-dependent effects
HepG2 cells; B: compound dose ≦ 40 μM
  Activity on DiI-LDL uptake: ++
ERK
  activation of ERK: activation of ERK

## COc1cc2c(cc1O)CCN1Cc3c(ccc(OC)c3OC)CC21 (stereo not drawn) [14R-(+)-CRPM, 14R-(+)-corypalmine]
LDLR mRNA [1]
  LDLR mRNA expression: potent and dose-dependent effects
HepG2 cells; A: compound dose ≦ 10 μM
  Activity on DiI-LDL uptake: ++

## COc1cc2c(cc1OC)[C@H]1Cc3ccc(OC)c(OC)c3CN1CC2 [14R-(+)-THP, 14R-(+)-tetrahydropalmatine]
LDLR mRNA [1]
  LDLR mRNA expression: potent and dose-dependent effects
HepG2 cells; B: compound dose ≦ 40 μM
  Activity on DiI-LDL uptake: ++
ERK
  activation of ERK: activation of ERK
[2]
  ACC phosphorylation: induction of ACC phosphorylation

## CC(C)c1c(C(=O)Nc2ccccc2)c(-c2ccccc2)c(-c2ccc(F)cc2)n1CC[C@@H](O)C[C@@H](O)CC(=O)O [ATV, atorvastatin, reference compound]
Hyperlipidemic rabbits
  serum total cholesterol levels, treatment day 14: 33.9 ± 6.5

## COc1cc2c(cc1OC)[C@H]1[C@@H](C)c3ccc(OC)c(OC)c3CN1CC2 [CRDL, corydaline]
[3]; end of 4-week treatment, versus control group, 75 mg/kg
  serum levels of AST and ALT (liver function): liver function was not damaged; also recorded: statistically lower
[3]; entire 4-week treatment
  adverse effects: No any adverse effects were observed

## COc1ccc2c(c1)CCN1Cc3c(ccc(OC)c3OS(=O)(=O)c3ccccc3)CC21 (stereo not drawn) [Compound 115, 3,10-Dimethoxy-5,6,7,8,13,13a-hexahydroisoquinolino[2,1-b]isoquinolin-9-yl benzenesulfonate]
HepG2 cells
  Activity in LDL uptake at 40 uM (relative to control): +++
LDLR mRNA [4]
  fold induction at 10 µM: 0.51 ± 0.11
  fold induction at 40 µM: 2.65 ± 0.06

## COc1ccc2c(c1OS(=O)(=O)c1ccccc1)CN1CCc3cc4c(cc3C1C2)OCCO4 (stereo not drawn) [Compound 116, 11-Methoxy-6,7,8,9,14,14a-hexahydro-2H,3H-1,4-dioxano[5,6-g]isoquinoluio[3,2-a]isoquinolin-10-yl benzenesulfonate]
LDLR mRNA [4]
  fold induction at 10 µM: 1.41 ± 0.04
  fold induction at 40 µM: 7.19 ± 1.29

## COc1ccc2c(c1OS(=O)(=O)c1ccccc1)CN1CCc3cc(C)ccc3C1C2 (stereo not drawn) [Compound 121, 10-Methoxy-3-methyl-5,6,7,8,13,13a-hexahydroisoquinolino[2,1-b]isoquinofin-9-yl benzenesulfonate]
HepG2 cells
  Activity in LDL uptake at 10 uM (relative to control): +++
  Activity in LDL uptake at 40 uM (relative to control): +

## COc1cc2c(cc1C(=O)NCCO)C1Cc3ccc(OC)c(OS(=O)(=O)c4ccccc4)c3CN1CC2 (stereo not drawn) [Compound 137, 2-[N-(2-hydroxyethyl)carbamoyl]-3,10-dimethoxy-5,6,7,8,13,13a-hexahydroisoquinolino[2,1-b]isoquinolin-9-yl benzenesulfonate]
HepG2 cells
  Activity in LDL uptake at 10 uM (relative to control): +
  Activity in LDL uptake at 40 uM (relative to control): +++

## COc1cc2c(cc1OCCO)CCN1Cc3c(ccc(OC)c3OS(=O)(=O)c3ccccc3)CC21 (stereo not drawn) [Compound 138, 3-(2-Hydroxyethoxy)-2,10-dimethoxy-5,6,7,8,13,13a-hexahydroisoquinolino[2,1-b]isoquinolin-9-yl benzenesulfonate]
HepG2 cells
  Activity in LDL uptake at 10 uM (relative to control): +
  Activity in LDL uptake at 40 uM (relative to control): +++

## CCC(C)(C)C(=O)O[C@H]1C[C@@H](C)C=C2C=C[C@H](C)[C@H](CC[C@@H]3C[C@@H](O)CC(=O)O3)[C@H]21 [SMV, simvastatin, reference compound]
Hyperlipidemic rabbits
  serum total cholesterol levels, treatment day 14: 26.2 ± 5.5
